Structures are written as SMILES.

The target in one experiment is human adenosine A2b receptor (Homo sapiens (Human), UniProt P29275). Briefly: Cellular in vitro reporter gene test for A2b receptor activity (CHO-K1, CRE-luciferase, NECA stimulation). The experiment is classed as cell-based.
Sequence of human adenosine A2b receptor (P29275 whole entry): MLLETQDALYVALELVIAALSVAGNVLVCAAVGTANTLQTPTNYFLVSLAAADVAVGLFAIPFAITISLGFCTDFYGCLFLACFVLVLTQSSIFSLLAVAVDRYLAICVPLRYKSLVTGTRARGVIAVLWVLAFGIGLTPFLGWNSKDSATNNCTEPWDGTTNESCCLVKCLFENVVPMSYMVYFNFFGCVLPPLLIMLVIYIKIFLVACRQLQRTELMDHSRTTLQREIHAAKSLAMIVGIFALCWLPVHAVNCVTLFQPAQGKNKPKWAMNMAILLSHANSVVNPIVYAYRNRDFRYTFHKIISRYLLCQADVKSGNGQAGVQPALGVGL
Conditions: not given
The method, boiled down:
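CHO-K1 cells with CRE-driven luciferase; antagonists co-incubated with NECA at its EC50, determined in a pre-experiment on each test day. Luciferase read by luminescence 3 h after NECA addition.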
A word on the IC50: it is the concentration that gives 50% inhibition. For `Cc1c(CN2CCNC2=NC#N)sc2c1c(=O)n(C(C)C(F)(F)F)c(=O)n2CCC(F)(F)F` (racemic) [Example 451, [1-{[5-Methyl-2,4-dioxo-3-(1,1,1-trifluoropropan-2-yl)-1-(3,3,3-trifluoropropyl)-1,2,3,4-tetrahydrothieno[2,3-d]pyrimidin-6-yl]methyl}imidazolidin-2-ylidene]cyanamide], the IC50 came out at 10 nM.

The experiment is the same for the next values; noted with them: recombinant CHO-K1 cell line, CRE-luciferase reporter, antagonism of EC50 concentration of NECA; in some cases means of several determinations, rounded to two significant figures; read-out: A2b receptor IC50.
Turning to `Cc1c(CN2CCNC2=O)sc2c1c(=O)n(CC(F)(F)F)c(=O)n2CC1COC1` [Example 212, 5-Methyl-1-(oxetan-3-ylmethyl)-6-[(2-oxoimidazolidin-1-yl)methyl]-3-(2,2,2-trifluoroethyl)thieno[2,3-d]pyrimidine-2,4(1H,3H)-dione], the IC50 was 17 nM.
As to `COCCn1c(=O)c2c(C)c(Cn3cc[nH]c3=O)sc2n(CCOC)c1=O` [Example 345, 1,3-Bis(2-methoxyethyl)-5-methyl-6-[(2-oxo-2,3-dihydro-1H-imidazol-1-yl)methyl]thieno[2,3-d]pyrimidine-2,4(1H,3H)-dione], the IC50 is 17 nM.
On the same count and under the same terms, the same measure for `CCn1c(=O)c2c(C)c(CN3CCNC(=O)C3=O)sc2n(CCOC2CC2)c1=O` [Example 270, 1-[2-(Cyclopropyloxy)ethyl]-6-[(2,3-dioxopiperazin-1-yl)methyl]-3-ethyl-5-methylthieno[2,3-d]pyrimidine-2,4(1H,3H)-dione]: 38 nM.
On the same count and under the same terms, the result for `CCn1c(=O)c2c(C)c(CN3CC(NC(=O)OC(C)(C)C)CC3=O)sc2n(CCC(F)(F)F)c1=O` (racemic) [Example 8, tert-Butyl (1-{[3-ethyl-5-methyl-2,4-dioxo-1-(3,3,3-trifluoropropyl)-1,2,3,4-tetrahydrothieno[2,3-d]pyrimidin-6-yl]methyl}-5-oxopyrrolidin-3-yl)carbamate (racemate)] reads 120 nM; that for `COC(=O)N=C1NCCN1Cc1sc2c(c1C)c(=O)n(CC(F)(F)F)c(=O)n2CC1CCO1` (single isomer, unassigned) [Example 466, Methyl [1-{[5-methyl-1-(oxetan-2-ylmethyl)-2,4-dioxo-3-(2,2,2-trifluoroethyl)-1,2,3,4-tetrahydrothieno[2,3-d]pyrimidin-6-yl]methyl}imidazolidin-2-ylidene]carbamate], 6.6 nM.
Still for that read-out and setting: the same measure for `CCn1c(=O)c2c(C)c(CN3CCNC3=S)sc2n(CC2CCCO2)c1=O` (racemic) [Example 35, 3-Ethyl-5-methyl-1-(tetrahydrofuran-2-ylmethyl)-6-[(2-thioxoimidazolidin-1-yl)methyl]thieno[2,3-d]pyrimidine-2,4(1H,3H)-dione (racemate)]: 6.3 nM; for `CCn1c(=O)c2c(C)c(CN3CCNC3=O)sc2n(Cc2nonc2C)c1=O` [Example 82, 3-Ethyl-5-methyl-1-[(4-methyl-1,2,5-oxadiazol-3-yl)methyl]-6-[(2-oxoimidazolidin-1-yl)methyl]thieno[2,3-d]pyrimidine-2,4(1H,3H)-dione]: 17 nM; for `CCn1c(=O)c2c(C)c(CN3CCNC3=NC(=O)OC)sc2n(CC2CCO2)c1=O` (racemic) [Example 371, Methyl [1-{[3-ethyl-5-methyl-1-(oxetan-2-ylmethyl)-2,4-dioxo-1,2,3,4-tetrahydrothieno[2,3-d]pyrimidin-6-yl]methyl}imidazolidin-2-ylidene]carbamate]: 9.8 nM.
On to `CCn1c(=O)c2c(C)c(CN3CCNC(=O)C3=O)sc2n(CCOC2CCCC2)c1=O` [Example 395, 1-[2-(Cyclopentyloxy)ethyl]-6-[(2,3-dioxopiperazin-1-yl)methyl]-3-ethyl-5-methylthieno[2,3-d]pyrimidine-2,4(1H,3H)-dione], for which the IC50 stood at 94 nM.
On the same count and under the same terms, the same measure for `COCCn1c(=O)n(C(C)C(F)(F)F)c(=O)c2c(C)c(CN3CCNC3=O)sc21` (single isomer, unassigned) [Example 498, 1-(2-Methoxyethyl)-5-methyl-6-[(2-oxoimidazolidin-1-yl)methyl]-3-(1,1,1-trifluoropropan-2-yl)thieno[2,3-d]pyrimidine-2,4(1H,3H)-dione]: 79 nM.
The same measure, in the same setting: the same measure for `CCn1c(=O)c2c(C)c(CN3CCNC3=O)sc2n(CC(F)(F)F)c1=O` [Example 47, 3-Ethyl-5-methyl-6-[(2-oxoimidazolidin-1-yl)methyl]-1-(2,2,2-trifluoroethyl)thieno[2,3-d]pyrimidine-2,4(1H,3H)-dione]: 14 nM; for `COCCn1c(=O)n(CCC=C(C)C)c(=O)c2c(C)c(CN3CCNC3=O)sc21` [Example 320, 1-(2-Methoxyethyl)-5-methyl-3-(4-methylpent-3-en-1-yl)-6-[(2-oxoimidazolidin-1-yl)methyl]thieno[2,3-d]pyrimidine-2,4(1H,3H)-dione]: 0.44 nM; for `COCCn1c(=O)c2c(C)c(CN3CCNC3=O)sc2n(CC2CCCO2)c1=O` (racemic) [Example 233, 3-(2-Methoxyethyl)-5-methyl-6-[(2-oxoimidazolidin-1-yl)methyl]-1-(tetrahydrofuran-2-ylmethyl)thieno[2,3-d]pyrimidine-2,4(1H,3H)-dione]: 23 nM.
On the same count and under the same terms, the result for `COCCn1c(=O)n(C(C)C(F)(F)F)c(=O)c2c(C)c(CN3CCNC3=O)sc21` (single isomer, unassigned) [Example 499, 1-(2-Methoxyethyl)-5-methyl-6-[(2-oxoimidazolidin-1-yl)methyl]-3-(1,1,1-trifluoropropan-2-yl)thieno[2,3-d]pyrimidine-2,4(1H,3H)-dione] reads 230 nM.
With `CCCn1c(=O)n(CC)c(=O)c2c(C)c(CN3CCNC3=O)sc21` [Example 77, 3-Ethyl-5-methyl-6-[(2-oxoimidazolidin-1-yl)methyl]-1-propylthieno[2,3-d]pyrimidine-2,4(1H,3H)-dione], the IC50 is 5.6 nM.
Same read-out and setting: the same measure for `Cc1c(CN2CCNC2=S)sc2c1c(=O)n(CC(C)C)c(=O)n2CC1CCO1` (single isomer, unassigned) [Example 148, 3-Isobutyl-5-methyl-1-(oxetan-2-ylmethyl)-6-[(2-thioxoimidazolidin-1-yl)methyl]thieno[2,3-d]pyrimidine-2,4(1H,3H)-dione]: 4.1 nM.
The same measure, in the same setting: the result for `CCOCCn1c(=O)c2c(C)c(CN3CCNC3=S)sc2n(CCC(F)(F)F)c1=O` [Example 301, 3-(2-Ethoxyethyl)-5-methyl-6-[(2-thioxoimidazolidin-1-yl)methyl]-1-(3,3,3-trifluoropropyl)thieno[2,3-d]pyrimidine-2,4(1H,3H)-dione] reads 6.5 nM.
The same measure, in the same setting: the same measure for `CCn1c(=O)c2c(C)c(CN3CCNC3=NC(=O)OC)sc2n(CC2CCCO2)c1=O` (single isomer, unassigned) [Example 376, Methyl [1-{[3-ethyl-5-methyl-2,4-dioxo-1-(tetrahydrofuran-2-ylmethyl)-1,2,3,4-tetrahydrothieno[2,3-d]pyrimidin-6-yl]methyl}imidazolidin-2-ylidene]carbamate]: 7.9 nM; for `C=CCn1c(=O)c2c(C)c(CN3CCNC3=O)sc2n(CCOC)c1=O` [Example 85, 3-Allyl-1-(2-methoxyethyl)-5-methyl-6-[(2-oxoimidazolidin-1-yl)methyl]thieno[2,3-d]pyrimidine-2,4(1H,3H)-dione]: 18 nM; for `Cc1c(Cn2nc[nH]c2=O)sc2c1c(=O)n(C(C)C)c(=O)n2CC1CCCO1` (single isomer, unassigned) [Example 426, 3-Isopropyl-5-methyl-6-[(5-oxo-4,5-dihydro-1H-1,2,4-triazol-1-yl)methyl]-1-(tetrahydrofuran-2-ylmethyl)thieno[2,3-d]pyrimidine-2,4(1H,3H)-dione]: 270 nM.
`COCCn1c(=O)n(C(C)C(F)(F)F)c(=O)c2c(C)c(CN3CCNC3=NC(=O)OC)sc21` (racemic) [Example 471, Methyl [1-{[1-(2-methoxyethyl)-5-methyl-2,4-dioxo-3-(1,1,1-trifluoropropan-2-yl)-1,2,3,4-tetrahydrothieno[2,3-d]pyrimidin-6-yl]methyl}imidazolidin-2-ylidene]carbamate]: the IC50 stood at 18 nM.
Same read-out and setting: the result for `CCOCCn1c(=O)n(CC(F)(F)F)c(=O)c2c(C)c(CN3CCNC3=O)sc21` [Example 205, 1-(2-Ethoxyethyl)-5-methyl-6-[(2-oxoimidazolidin-1-yl)methyl]-3-(2,2,2-trifluoroethyl)thieno[2,3-d]pyrimidine-2,4(1H,3H)-dione] reads 25 nM; that for `CCCn1c(=O)c2c(C)c(CN3CCNC3=O)sc2n(CCOC)c1=O` [Example 84, 1-(2-Methoxyethyl)-5-methyl-6-[(2-oxoimidazolidin-1-yl)methyl]-3-propylthieno[2,3-d]pyrimidine-2,4(1H,3H)-dione], 3.9 nM.
With `CCOCCn1c(=O)c2c(C)c(CN3CCNC(=O)C3=O)sc2n(CCOC)c1=O` [Example 404, 6-[(2,3-Dioxopiperazin-1-yl)methyl]-3-(2-ethoxyethyl)-1-(2-methoxyethyl)-5-methylthieno[2,3-d]pyrimidine-2,4(1H,3H)-dione], the IC50 was 120 nM.
The same measure, in the same setting: the result for `COCCn1c(=O)n(CC(F)(F)F)c(=O)c2c(C)c(CN3CCNC3=NC(=O)OC)sc21` [Example 382, Methyl [1-{[1-(2-methoxyethyl)-5-methyl-2,4-dioxo-3-(2,2,2-trifluoroethyl)-1,2,3,4-tetrahydrothieno[2,3-d]pyrimidin-6-yl]methyl}imidazolidin-2-ylidene]carbamate] reads 6.8 nM; that for `Cc1c(CN2CCNC2=NC#N)sc2c1c(=O)n(CC(F)(F)F)c(=O)n2CC1CCO1` (single isomer, unassigned) [Example 450, [1-{[5-Methyl-1-(oxetan-2-ylmethyl)-2,4-dioxo-3-(2,2,2-trifluoroethyl)-1,2,3,4-tetrahydrothieno[2,3-d]pyrimidin-6-yl]methyl}imidazolidin-2-ylidene]cyanamide], 14 nM; that for `CCn1c(=O)c2c(C)c(CN3CCNC3=NC#N)sc2n(CC2CCCO2)c1=O` (single isomer, unassigned) [Example 260, [1-{[3-Ethyl-5-methyl-2,4-dioxo-1-(tetrahydrofuran-2-ylmethyl)-1,2,3,4-tetrahydrothieno[2,3-d]pyrimidin-6-yl]methyl}imidazolidin-2-ylidene]cyanamide], 2.2 nM.
